Test results from ChEMBL document CHEMBL5046278, “Synthesis and Evaluation of Novel Tetrahydronaphthyridine CXCR4 Antagonists with Improved Drug-like Profiles” (J Med Chem, 2022).
pIC50: −log10 of the molar value.

How the values were obtained:
[1] = Cmax in mouse at 30 mg/kg, po measured after 8 hrs by LC-MS/MS analysis; format: ADME, organism-based; set-up: route oral, dose 30 mg/kg, time 8 hrs; settings: in vivo
[2] = Antagonist activity at human CXCR4 receptor expressed in CCRF-CEM cells assessed as inhibition of CXCL12-induced calcium release by calcium flux assay; format: cell-based
[3] = Antagonist activity at mAChR (unknown origin) expressed in CCRF-CEM cells assessed as inhibition of calcium release by calcium flux assay; format: cell-based; settings: Homo sapiens
[4] = Permeability of compound at pH 5.5 incubated for 4 hrs by PAMPA assay; format: ADME; settings: read-out: permeability
Cytochrome P450 2D6 = Cytochrome P450 2D6 (Homo sapiens, UniProt P10635); test: Inhibition of recombinant human CYP2D6 using AMMC as substrate preincubated for 30 mins followed by substrate addition measured after 45 mins by fluorescence based assay; format: ADME
[5] = Cytotoxicity against human TZM-bl cells assessed as reduction in cell viability incubated for 4 hrs by […] assay; format: toxicity, cell-based; settings: read-out: TC50
[6] = system: Human immunodeficiency virus 1; test: Antiviral activity against HIV-1 NL4-3(X4) pseudovirus infected in human TZM-bl cells assessed as reduction in viral infectivity measured after 48 hrs of postinfection by luminescence assay; format: functional, organism-based; settings: Human immunodeficiency virus 1, NL4-3(X4)
Mu-type opioid receptor = Mu-type opioid receptor (Homo sapiens, UniProt P35372); test: Inhibition of mu opioid receptor (unknown origin)
[7] = biological target: Kappa-type opioid receptor (Homo sapiens, UniProt P41145); test: Inhibition of kappa opioid receptor (unknown origin)
[8] = biological target: T1, Muscarinic acetylcholine receptor M2 (Homo sapiens, UniProt P08172); test: Inhibition of M2 mAChR receptor (unknown origin)
T1 sequence (P08172 whole entry): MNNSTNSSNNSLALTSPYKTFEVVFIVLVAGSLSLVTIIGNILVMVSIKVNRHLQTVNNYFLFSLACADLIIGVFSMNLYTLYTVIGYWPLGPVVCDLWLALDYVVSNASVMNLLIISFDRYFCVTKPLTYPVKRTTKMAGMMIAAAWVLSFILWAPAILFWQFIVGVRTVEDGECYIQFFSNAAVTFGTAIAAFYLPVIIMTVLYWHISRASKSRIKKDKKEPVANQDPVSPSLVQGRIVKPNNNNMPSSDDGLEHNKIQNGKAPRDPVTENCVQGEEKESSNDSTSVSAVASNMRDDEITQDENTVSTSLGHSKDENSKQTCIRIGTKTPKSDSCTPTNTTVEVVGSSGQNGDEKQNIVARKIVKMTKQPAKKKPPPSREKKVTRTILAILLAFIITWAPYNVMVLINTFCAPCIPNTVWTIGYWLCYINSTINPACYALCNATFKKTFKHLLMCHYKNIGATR

[9] = biological target: Neuronal acetylcholine receptor subunit alpha-7 (Homo sapiens, UniProt P36544); test: Inhibition of alpha7 nicotinic acetylcholine receptor (unknown origin)
[10] = biological target: Voltage-gated inwardly rectifying potassium channel KCNH2 (Homo sapiens, UniProt Q12809); test: Inhibition of human ERG by [3H]]Astemizole binding assay; format: toxicity
[11] = Cmax in mouse at 3 mg/kg, iv measured after 8 hrs by LC-MS/MS analysis; format: ADME, organism-based; set-up: route intravenous, time 8 hrs, dose 3 mg/kg; settings: in vivo
[12] = Cmax in mouse at 3 mg/kg, po measured after 8 hrs by LC-MS/MS analysis; format: ADME, organism-based; set-up: route oral, time 8 hrs, dose 3 mg/kg; settings: in vivo
[13] = Cmax in mouse at 10 mg/kg, po measured after 8 hrs by LC-MS/MS analysis; format: ADME, organism-based; set-up: route oral, time 8 hrs, dose 10 mg/kg; settings: in vivo
[14] = Drug concentration in mouse plasma at 3 mg/kg, po measured at 12 hrs by LC-MS/MS analysis; format: ADME, organism-based
[15] = AUC(0 to 8 h) in mouse plasma at 3 mg/kg, iv measured at 24 hrs by LC-MS/MS analysis; format: ADME, organism-based; set-up: route intravenous, time 24 hrs, dose 3 mg/kg; settings: in vivo
[16] = AUC(0 to 8 h)in mouse plasma at 3 mg/kg, po measured at 24 hrs by LC-MS/MS analysis; format: ADME, organism-based; set-up: route oral, dose 3 mg/kg, time 24 hrs; settings: in vivo
[17] = Oral bioavailability in mouse at 30 mg/kg measured at 24 hrs by LC-MS/MS analysis; format: ADME, organism-based; settings: in vivo
Cytochrome P450 3A4 = Cytochrome P450 3A4 (Homo sapiens, UniProt P08684); test: Inhibition of CYP3A4 (unknown origin); format: ADME
Cytochrome P450 1A2 = Cytochrome P450 1A2 (Homo sapiens, UniProt P05177); test: Inhibition of CYP1A2(unknown origin); format: ADME
Cytochrome P450 2C19 = Cytochrome P450 2C19 (Homo sapiens, UniProt P33261); test: Inhibition of CYP2C19 (unknown origin); format: ADME
Cytochrome P450 2C9 = Cytochrome P450 2C9 (Homo sapiens, UniProt P11712); test: Inhibition of CYP2C9 (unknown origin); format: ADME
[18] = Therapeutic index, ratio of TC50 for human TZM-bl cells to IC50 for antiviral activity against HIV-1 NL4-3 (X4) pseudovirus infected in human TZM-bl cells assessed as reduction in viral infectivity; format: toxicity, cell-based
Homo sapiens [19] = species on record: Homo sapiens; test: Selectivity index, ratio of IC50 for antagonist activity at mAChR (unknown origin) to IC50 for antagonist activity at human CXCR4 receptor
[20] = biological target: C-X-C chemokine receptor type 2 (Homo sapiens) (UniProt P25025); test: Inhibition of human CXCR2 at 10 uM relative to control
[21] = biological target: C-C chemokine receptor type 4 (Homo sapiens) (UniProt P51679); test: Inhibition of human CCR4 at 10 uM relative to control
[22] = biological target: C-C chemokine receptor type 7 (Homo sapiens) (UniProt P32248); test: Inhibition of human CCR7 at 10 uM relative to control
Homo sapiens [23] = species on record: Homo sapiens; test: Selectivity index, ratio of IC50 for inhibition of mu opioid receptor (unknown origin) to IC50 for antagonist activity at human CXCR4 receptor expressed in CCRF-CEM cells; format: cell-based
Homo sapiens [24] = species on record: Homo sapiens; test: Selectivity index, ratio of IC50 for inhibition of dopamine D2 receptor (unknown origin) to IC50 for antagonist activity at human CXCR4 receptor expressed in CCRF-CEM cells; format: cell-based
Homo sapiens [25] = species on record: Homo sapiens; test: Selectivity index, ratio of IC50 for inhibition of M2 mAChR receptor (unknown origin) to IC50 for antagonist activity at human CXCR4 receptor expressed in CCRF-CEM cells; format: cell-based
Homo sapiens [26] = species on record: Homo sapiens; test: Selectivity index, ratio of IC50 for inhibition of recombinant human CYP2D6 to IC50 for antagonist activity at human CXCR4 receptor expressed in CCRF-CEM cells; format: cell-based
Homo sapiens [27] = species on record: Homo sapiens; test: Selectivity index, ratio of IC50 for inhibition of recombinant human CYP3A4 to IC50 for antagonist activity at human CXCR4 receptor expressed in CCRF-CEM cells; format: cell-based
Homo sapiens [28] = species on record: Homo sapiens; test: Selectivity index, ratio of IC50 for inhibition of recombinant human CYP2C19 (unknown origin) to IC50 for antagonist activity at human CXCR4 receptor expressed in CCRF-CEM cells; format: cell-based

Chain of Kappa-type opioid receptor (P41145 whole entry): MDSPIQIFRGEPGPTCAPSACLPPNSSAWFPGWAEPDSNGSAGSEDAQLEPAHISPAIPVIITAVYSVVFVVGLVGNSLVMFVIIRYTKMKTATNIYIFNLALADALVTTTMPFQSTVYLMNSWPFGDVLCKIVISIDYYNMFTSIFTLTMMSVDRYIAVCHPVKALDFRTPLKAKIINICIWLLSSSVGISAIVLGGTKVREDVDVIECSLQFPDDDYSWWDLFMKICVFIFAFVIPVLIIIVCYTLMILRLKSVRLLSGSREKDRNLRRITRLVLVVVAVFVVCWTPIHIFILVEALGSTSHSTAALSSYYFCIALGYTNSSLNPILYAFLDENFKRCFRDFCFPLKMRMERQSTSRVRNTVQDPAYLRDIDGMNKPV
Chain of Cytochrome P450 2C19 (P33261 whole entry): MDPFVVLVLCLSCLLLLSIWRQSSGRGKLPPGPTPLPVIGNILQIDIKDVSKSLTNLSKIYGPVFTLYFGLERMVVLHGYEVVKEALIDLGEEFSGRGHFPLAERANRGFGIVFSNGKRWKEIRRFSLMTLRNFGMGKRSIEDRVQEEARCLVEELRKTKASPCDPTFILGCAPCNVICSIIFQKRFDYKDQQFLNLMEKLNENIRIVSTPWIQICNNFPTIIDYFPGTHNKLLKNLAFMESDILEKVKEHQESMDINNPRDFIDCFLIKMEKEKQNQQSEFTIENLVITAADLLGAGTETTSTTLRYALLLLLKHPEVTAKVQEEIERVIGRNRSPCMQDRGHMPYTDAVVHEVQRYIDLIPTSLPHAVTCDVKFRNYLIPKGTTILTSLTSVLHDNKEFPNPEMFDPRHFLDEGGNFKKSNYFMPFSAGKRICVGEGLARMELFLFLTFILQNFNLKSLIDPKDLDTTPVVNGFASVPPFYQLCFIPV
Chain of Mu-type opioid receptor (P35372 whole entry): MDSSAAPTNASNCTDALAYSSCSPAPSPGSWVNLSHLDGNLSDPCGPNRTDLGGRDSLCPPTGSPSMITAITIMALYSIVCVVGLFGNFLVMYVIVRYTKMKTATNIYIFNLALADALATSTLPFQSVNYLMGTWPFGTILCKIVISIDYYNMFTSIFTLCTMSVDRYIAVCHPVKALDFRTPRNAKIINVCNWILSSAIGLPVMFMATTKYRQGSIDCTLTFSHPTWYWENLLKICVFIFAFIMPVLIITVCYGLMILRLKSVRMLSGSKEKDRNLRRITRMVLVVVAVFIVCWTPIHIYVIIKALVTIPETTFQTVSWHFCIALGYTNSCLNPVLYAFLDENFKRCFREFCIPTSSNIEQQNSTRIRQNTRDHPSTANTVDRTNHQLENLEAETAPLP
Chain of C-X-C chemokine receptor type 2 (Homo sapiens) (P25025 whole entry): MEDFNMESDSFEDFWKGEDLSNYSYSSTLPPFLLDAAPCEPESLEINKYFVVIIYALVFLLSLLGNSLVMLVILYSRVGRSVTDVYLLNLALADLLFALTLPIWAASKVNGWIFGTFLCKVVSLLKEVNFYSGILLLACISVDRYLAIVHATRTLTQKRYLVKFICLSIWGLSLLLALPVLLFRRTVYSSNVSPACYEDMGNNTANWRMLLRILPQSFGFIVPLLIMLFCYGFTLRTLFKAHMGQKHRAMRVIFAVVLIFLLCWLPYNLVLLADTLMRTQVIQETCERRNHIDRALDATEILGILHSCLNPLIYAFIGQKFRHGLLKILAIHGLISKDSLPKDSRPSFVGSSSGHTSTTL
Chain of Cytochrome P450 2D6 (P10635 whole entry): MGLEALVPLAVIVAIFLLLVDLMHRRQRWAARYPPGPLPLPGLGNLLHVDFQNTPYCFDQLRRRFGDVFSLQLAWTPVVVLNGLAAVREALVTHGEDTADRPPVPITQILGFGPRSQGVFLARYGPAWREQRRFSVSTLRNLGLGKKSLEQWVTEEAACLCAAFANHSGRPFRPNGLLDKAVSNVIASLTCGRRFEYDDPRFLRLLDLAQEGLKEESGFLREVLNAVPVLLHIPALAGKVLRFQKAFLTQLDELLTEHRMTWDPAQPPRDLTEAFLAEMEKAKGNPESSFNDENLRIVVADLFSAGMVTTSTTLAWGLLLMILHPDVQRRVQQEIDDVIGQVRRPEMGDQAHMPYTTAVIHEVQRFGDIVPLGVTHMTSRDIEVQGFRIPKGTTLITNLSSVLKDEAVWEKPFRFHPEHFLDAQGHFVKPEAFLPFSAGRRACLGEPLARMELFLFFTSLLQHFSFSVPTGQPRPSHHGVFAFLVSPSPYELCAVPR
Chain of Cytochrome P450 2C9 (P11712 whole entry): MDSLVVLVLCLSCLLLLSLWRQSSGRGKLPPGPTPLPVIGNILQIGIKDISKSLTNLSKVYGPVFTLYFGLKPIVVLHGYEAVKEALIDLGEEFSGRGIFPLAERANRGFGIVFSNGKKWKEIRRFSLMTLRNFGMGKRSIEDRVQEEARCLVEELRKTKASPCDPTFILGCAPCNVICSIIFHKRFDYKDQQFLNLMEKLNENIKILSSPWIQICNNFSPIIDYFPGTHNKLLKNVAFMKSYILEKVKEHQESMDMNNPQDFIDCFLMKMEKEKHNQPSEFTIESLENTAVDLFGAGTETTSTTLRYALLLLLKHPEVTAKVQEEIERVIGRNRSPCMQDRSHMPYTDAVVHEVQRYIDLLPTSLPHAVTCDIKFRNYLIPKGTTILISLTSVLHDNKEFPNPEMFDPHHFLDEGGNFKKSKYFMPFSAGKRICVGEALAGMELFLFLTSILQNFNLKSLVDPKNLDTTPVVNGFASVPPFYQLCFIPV
Chain of C-C chemokine receptor type 7 (Homo sapiens) (P32248 whole entry): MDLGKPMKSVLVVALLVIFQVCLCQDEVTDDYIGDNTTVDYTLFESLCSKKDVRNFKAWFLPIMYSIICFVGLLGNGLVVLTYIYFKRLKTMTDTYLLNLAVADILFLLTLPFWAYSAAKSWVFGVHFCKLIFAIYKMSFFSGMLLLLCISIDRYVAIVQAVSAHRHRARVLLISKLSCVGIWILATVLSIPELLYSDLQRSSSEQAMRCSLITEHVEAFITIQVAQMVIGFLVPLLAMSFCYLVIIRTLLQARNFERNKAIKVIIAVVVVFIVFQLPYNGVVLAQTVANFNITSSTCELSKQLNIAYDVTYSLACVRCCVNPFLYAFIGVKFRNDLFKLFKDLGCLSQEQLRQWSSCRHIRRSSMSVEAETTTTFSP
Chain of C-C chemokine receptor type 4 (Homo sapiens) (P51679 whole entry): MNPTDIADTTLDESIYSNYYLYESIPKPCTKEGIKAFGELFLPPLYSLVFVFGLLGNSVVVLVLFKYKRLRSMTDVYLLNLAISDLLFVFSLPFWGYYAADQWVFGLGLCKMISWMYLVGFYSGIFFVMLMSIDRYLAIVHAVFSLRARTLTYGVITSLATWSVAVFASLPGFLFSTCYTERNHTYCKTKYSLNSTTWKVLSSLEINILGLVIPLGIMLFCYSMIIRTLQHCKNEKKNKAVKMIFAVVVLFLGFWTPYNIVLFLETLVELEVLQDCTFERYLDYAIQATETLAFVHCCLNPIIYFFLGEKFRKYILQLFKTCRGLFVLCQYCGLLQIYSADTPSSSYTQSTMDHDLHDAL
Chain of Cytochrome P450 3A4 (P08684 whole entry): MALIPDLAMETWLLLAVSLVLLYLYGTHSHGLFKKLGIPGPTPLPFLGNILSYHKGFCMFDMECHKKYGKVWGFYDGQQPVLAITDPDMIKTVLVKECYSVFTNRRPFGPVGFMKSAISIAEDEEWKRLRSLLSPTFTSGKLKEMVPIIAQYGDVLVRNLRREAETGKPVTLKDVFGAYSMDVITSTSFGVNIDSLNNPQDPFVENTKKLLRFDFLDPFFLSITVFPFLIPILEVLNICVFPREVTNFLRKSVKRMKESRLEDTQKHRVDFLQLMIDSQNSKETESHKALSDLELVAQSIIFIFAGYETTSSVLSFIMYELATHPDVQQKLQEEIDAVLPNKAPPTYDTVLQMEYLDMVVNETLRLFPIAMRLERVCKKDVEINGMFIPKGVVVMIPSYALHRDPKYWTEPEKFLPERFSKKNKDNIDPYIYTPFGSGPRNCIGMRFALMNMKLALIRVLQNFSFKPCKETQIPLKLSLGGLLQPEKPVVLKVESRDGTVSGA
Chain of Cytochrome P450 1A2 (P05177 whole entry): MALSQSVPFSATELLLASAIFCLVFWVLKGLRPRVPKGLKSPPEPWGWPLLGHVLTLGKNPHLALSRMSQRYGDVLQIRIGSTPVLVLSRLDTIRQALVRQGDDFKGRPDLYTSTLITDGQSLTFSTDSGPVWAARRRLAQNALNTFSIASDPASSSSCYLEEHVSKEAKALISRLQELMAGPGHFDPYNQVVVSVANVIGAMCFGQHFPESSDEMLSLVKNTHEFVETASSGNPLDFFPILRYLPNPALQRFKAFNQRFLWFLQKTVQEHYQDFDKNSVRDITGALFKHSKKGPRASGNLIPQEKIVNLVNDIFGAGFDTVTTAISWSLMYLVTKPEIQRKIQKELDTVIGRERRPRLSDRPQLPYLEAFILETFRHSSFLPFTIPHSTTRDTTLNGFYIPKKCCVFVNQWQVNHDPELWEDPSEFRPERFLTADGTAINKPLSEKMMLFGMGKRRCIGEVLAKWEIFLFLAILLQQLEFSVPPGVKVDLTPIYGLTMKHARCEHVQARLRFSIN
Chain of Neuronal acetylcholine receptor subunit alpha-7 (P36544 whole entry): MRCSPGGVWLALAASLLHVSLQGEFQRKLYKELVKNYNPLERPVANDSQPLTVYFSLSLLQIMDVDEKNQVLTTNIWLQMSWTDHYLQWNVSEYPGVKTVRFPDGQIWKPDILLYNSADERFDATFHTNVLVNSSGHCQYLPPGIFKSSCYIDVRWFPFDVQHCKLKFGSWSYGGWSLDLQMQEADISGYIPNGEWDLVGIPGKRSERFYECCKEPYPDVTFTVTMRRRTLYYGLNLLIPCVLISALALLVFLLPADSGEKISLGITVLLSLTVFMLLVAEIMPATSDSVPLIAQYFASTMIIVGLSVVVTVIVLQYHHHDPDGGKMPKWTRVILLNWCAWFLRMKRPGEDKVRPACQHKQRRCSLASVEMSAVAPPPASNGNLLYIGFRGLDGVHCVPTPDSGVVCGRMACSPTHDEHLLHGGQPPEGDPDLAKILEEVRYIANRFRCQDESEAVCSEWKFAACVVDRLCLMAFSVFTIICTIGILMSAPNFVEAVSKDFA

With `CN(CCCCN(C[C@H]1Cc2ncccc2CN1)[C@H]1CCCc2cccnc21)C1CCC(F)(F)CC1` the Cmax [1] was 169 ng/mL, the pIC50 [2] was 7.62 and the pIC50 [3] was < 4.77. For the same molecule, the Papp at 4 h [4] was 1.5 ×10⁻⁶ cm/s, the pIC50 (Cytochrome P450 2D6) was 4.89 and the CC50 at 4 h [5] was > 10 µM. The pIC50 [6] was 8.15, the pIC50 (Mu-type opioid receptor) was < 4.52 and the pIC50 [7] was < 4.52. The pIC50 [8] was < 4.52, the pIC50 [9] was < 4.52 and the pIC50 [10] was 4.77. The Cmax [11] was 116 ng/mL, the Cmax [12] was 12.8 ng/mL and the Cmax [13] was 54.8 ng/mL. The concentration at 12 h [14] was 1.5 ng/mL, the AUC [15] was 265 h/ng/mL and the AUC [16] was 34.3 h/ng/mL. The bioavailability [17] was 27.1%, the pIC50 (Cytochrome P450 3A4) was < 4.70 and the pIC50 (Cytochrome P450 1A2) was < 4.70. The pIC50 (Cytochrome P450 2C19) was < 4.70, the pIC50 (Cytochrome P450 2C9) was < 4.70 and the selectivity ratio [18] was > 1000. For the same molecule, the Selectivity Index (Homo sapiens [19]) was > 710, the inhibition [20] was < 5% and the inhibition [21] was < 5%. The inhibition [22] was < 5%, the Selectivity Index (Homo sapiens [23]) was > 1000 and the Selectivity Index (Homo sapiens [24]) was > 1000. The Selectivity Index (Homo sapiens [25]) was > 1000, the Selectivity Index (Homo sapiens [26]) was 540 and the Selectivity Index (Homo sapiens [27]) was > 710. The Selectivity Index (Homo sapiens [28]) was > 710.
